Data reported in patent US11447485B2, “Class of bifunctional compounds with quanternary ammonium salt structure” (Beijing Showby Pharmaceutical Co., Ltd., priority 2016, dated 2022).

Columns and labels:
[1] = target: human recombinant M2 receptor (Homo sapiens, UniProt P08172); test: biochemical; type: binding; details: 3H-QNB 1.81 nmol/L, 25° C., 5 h; read-out: hM2Ki
[2] = target: human recombinant M1 receptor (Homo sapiens, UniProt P11229); test: biochemical; type: binding; details: 3H-QNB […], 25° C., 5 h; read-out: hM1Ki
Chain of human recombinant M1 receptor (P11229 whole entry): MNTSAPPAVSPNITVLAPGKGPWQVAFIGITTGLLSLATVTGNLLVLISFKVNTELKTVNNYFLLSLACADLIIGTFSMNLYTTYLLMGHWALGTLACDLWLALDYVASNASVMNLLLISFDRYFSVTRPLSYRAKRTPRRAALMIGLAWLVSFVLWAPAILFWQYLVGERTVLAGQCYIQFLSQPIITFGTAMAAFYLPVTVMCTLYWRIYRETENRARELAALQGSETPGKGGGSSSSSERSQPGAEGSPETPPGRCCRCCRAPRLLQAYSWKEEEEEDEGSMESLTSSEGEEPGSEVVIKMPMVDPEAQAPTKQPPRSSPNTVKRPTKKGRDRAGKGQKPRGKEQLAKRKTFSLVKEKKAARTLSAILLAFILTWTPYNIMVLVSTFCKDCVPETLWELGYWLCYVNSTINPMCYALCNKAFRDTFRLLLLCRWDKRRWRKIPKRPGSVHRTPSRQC

[3] = target: human recombinant M3 receptor (Homo sapiens, UniProt P20309); test: biochemical; type: binding; details: 3H-QNB […], 25° C., 5 h; read-out: hM3Ki
Chain of human recombinant M3 receptor (P20309 whole entry): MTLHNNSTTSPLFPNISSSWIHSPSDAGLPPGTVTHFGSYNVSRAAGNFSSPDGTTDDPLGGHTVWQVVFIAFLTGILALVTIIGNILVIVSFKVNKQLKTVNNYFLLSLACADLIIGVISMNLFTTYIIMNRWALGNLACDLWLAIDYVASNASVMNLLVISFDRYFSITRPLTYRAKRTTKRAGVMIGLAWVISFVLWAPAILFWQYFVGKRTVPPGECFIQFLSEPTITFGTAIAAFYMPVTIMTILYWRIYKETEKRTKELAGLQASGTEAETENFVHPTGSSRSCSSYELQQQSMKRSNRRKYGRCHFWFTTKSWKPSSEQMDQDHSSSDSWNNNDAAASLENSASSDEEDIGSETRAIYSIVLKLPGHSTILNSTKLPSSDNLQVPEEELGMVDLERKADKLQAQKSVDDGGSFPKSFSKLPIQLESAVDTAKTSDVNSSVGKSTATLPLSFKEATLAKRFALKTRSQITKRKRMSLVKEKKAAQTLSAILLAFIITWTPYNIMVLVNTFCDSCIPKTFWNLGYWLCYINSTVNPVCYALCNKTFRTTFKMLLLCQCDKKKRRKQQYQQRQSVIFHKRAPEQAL

[4] = target: T1, human recombinant β2 adrenoceptor (Homo sapiens, UniProt P07550); test: cell-based; type: cell-based
T1 construct: expressed in transfected cells

[5] = system: tracheal smooth muscle of guinea pig; test: Relaxation of CCh-induced constriction of isolated guinea pig tracheal smooth muscle (Experimental Example 1); details: in vitro; for EC50: constriction induced by CCh 3 × 10^−6 mol/L, read-out: EC50 (μM) ± SD
[6] = target: T2, human recombinant β1 adrenoceptor (Homo sapiens, UniProt P08588); test: cAMP accumulation, human recombinant β1 adrenoceptor; type: cell-based; details: cAMP accumulation; 10 nM ICI118551 added; HEK293 cells; read-out: EC50 (β1)
T2 construct: expressed in transfected cells
T2 sequence (P08588 whole entry): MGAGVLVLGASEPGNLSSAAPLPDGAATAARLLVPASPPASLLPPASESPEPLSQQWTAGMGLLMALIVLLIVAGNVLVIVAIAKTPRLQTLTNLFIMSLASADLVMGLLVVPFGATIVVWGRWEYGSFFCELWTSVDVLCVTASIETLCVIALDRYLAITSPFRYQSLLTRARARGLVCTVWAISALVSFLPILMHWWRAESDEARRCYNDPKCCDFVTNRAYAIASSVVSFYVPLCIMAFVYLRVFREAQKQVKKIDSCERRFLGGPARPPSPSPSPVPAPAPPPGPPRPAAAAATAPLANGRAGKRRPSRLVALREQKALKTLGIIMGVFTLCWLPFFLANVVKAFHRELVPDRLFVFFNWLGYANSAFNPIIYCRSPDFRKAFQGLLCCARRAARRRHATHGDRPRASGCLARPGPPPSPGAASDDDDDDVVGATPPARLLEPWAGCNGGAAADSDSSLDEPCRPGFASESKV
Procedure: In order to measure the activity and selectivity of agonists to human β1 and β2 adrenoceptors, the cAMP accumulation of expressed receptors in each recombinant cell line was measured. cAMP was determined by homology radioimmunoassay, that is, cells were washed with PSB buffer solution and suspended in the buffer solution at room temperature to grow to 30000-40000 cells per well. The test compound was diluted with PSB buffer solution containing 0.1% BSA and tested at 11 gradient concentrations ranging from 100 uM to 0.1 pM. For the analysis of β1-adrenoceptor, 10 nM of ICI118551 was added to block the expression of β2-adrenoceptor in HEK293 cells. After the compound was added to the suspended cells, the scintillation plate was incubated at 37° C. for 10 minutes, the reaction was terminated with ice-cold detection buffer solution, and its radioactivity was measured after storage at 4° C. overnight.
The agonistic activity (pEC50 value) was analyzed by regression using S-type dose response model of software package (GraphPad Software, San Diego, Calif.). Selectivity was calculated from the ratio of measured cAMP of β1 and β2 adrenoceptors, which was expressed as sel. β1/β2=(EC50 (β1)/EC50 (β2)).

moderate and severe COPD = details: phase II clinical study; cited from earlier work

Chain of human recombinant M2 receptor (P08172 whole entry): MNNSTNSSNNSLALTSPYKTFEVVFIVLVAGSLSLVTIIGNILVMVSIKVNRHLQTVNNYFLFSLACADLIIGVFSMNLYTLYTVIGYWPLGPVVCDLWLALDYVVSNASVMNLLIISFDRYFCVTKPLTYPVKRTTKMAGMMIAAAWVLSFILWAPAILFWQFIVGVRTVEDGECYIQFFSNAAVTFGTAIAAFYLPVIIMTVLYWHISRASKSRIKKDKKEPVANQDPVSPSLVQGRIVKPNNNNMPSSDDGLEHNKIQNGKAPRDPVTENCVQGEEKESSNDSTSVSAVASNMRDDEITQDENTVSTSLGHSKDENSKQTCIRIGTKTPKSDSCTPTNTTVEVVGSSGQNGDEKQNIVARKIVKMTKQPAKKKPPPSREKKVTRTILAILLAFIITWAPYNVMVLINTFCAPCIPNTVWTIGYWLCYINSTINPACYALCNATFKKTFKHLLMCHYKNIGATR

Compound: O=CNc1cc([C@@H](O)CNCc2c(Cl)cc(OCCC[N+]34CCC(CC3)[C@@H](OC[C@](O)(c3ccccc3)C3CCCC3)C4)cc2Cl)ccc1O.[Br-] [Compound 59, (R)-(−)-3-[(R)-2-hydroxy-2-cyclopentyl-2-phenyl]ethoxy-1-{3-[(3,5-dichloro-4-(1-{(R)-[2-hydroxy-2-(3-formamido-4-hydroxy)phenyl]ethylamino}methyl)phenoxy)propyl}-1-azabicyclo[2,2,2]octylonium bromide]
- Ki [1]: 2 ± 0.89 nM
- Ki [2]: 0.283 ± 0.018 nM
- Ki [3]: 0.131 ± 0.022 nM
- EC50 ([4]; cAMP accumulation): 0.32 ± 0.12 nM
- EC50 [5]: 0.0165 ± 0.0075 µM
- EC50 [6]: 83 ± 31 nM

Compound: COc1cc(NC(=O)CCN2CCC(OC(=O)Nc3ccccc3-c3ccccc3)CC2)c(Cl)cc1CNC[C@H](O)c1ccc(O)c2[nH]c(=O)ccc12 [TD5959]
- effect on moderate and severe COPD (moderate and severe COPD): good effect on moderate and severe COPD

Compound: (R)-(−)-3-[(R)-2-hydroxy-2-cyclopentyl-2-phenyl]ethoxy-1-{3-[(4-(3-methyl-1-{(R)-[2-hydroxy-2-(6-hydroxy-2H-1,4-benzoxazin-3(4H)-one-8-yl)]ethylamino}ethylidene)phenoxy]propyl}-1-azabicyclo[2,2,2]octylonium bromide [Compound 63]
- Ki [1]: 0.323 ± 0.17 nM
- Ki [2]: 0.0493 ± 0.021 nM
- Ki [3]: 0.0198 ± 0.012 nM
- sel (β1/β2) [4]: 80.8
- Onset time (min) ± SD ([5]; CCh 3 × 10^−6 mol/L): 6.19 ± 0.12 min
- Time for eliminating inhibition effect (min) ([5]; CCh 3 × 10^−6 mol/L): more than 300 min
- EC50 [5]: 0.0155 ± 0.0078 µM
- EC50 [6]: 17 ± 5.8 nM
